Laboratory results: article PMC7011792 (Journal of Enzyme Inhibition and Medicinal Chemistry, 2017)

Columns and labels:
[1] = target: T1, AChE (EC 3.1.1.7) from electric eel (Electrophorus electricus, UniProt O42275); assay: biochemical
T1 construct: purchased Sigma-Aldrich C3389
Description: (§1) AChE (EC 3.1.1.7, Type VI-S, from electric eel, C3389; from human, C1682) and BuChE (EC 3.1.1.8, from equine serum, C0663; from human, B4186), 5,5'-dithiobis (2-nitrobenzoic acid) (DTNB, D218200), acetylthiocholine iodide (ATC, A5751), and butyrylthiocholine iodide (BTC, B3253) were obtained from Sigma-Aldrich (St. Louis, MO).
(§2) The inhibitory effects of the synthesised compounds in this paper were evaluated according to our previously reported method. […] ATC/BTC iodide solution (0.075 M) was prepared in deionised water. […] The assay buffer was prepared as follows: potassium dihydrogen phosphate (1.36 g, 10 mmol) was dissolved in 100 ml of water. The pH of the solution was then adjusted to 8.0 ± 0.1 with KOH. Stock solutions of the test samples were dissolved in ethanol to give a final concentration of 10^−4 M when diluted to the final volume of 3.32 ml. For each compound, a dilution series of at least five different concentrations (normally 10^−5–10^−9 M) were prepared.
(§3) For measurement, a cuvette containing 3.0 ml of phosphate buffer, 100 µL of AChE or BuChE, 100 µL of DTNB, and 100 µL of the test compound solution were added in sequence. The reaction was initiated after adding 20 µL of ATC or BTC, and the solution was mixed immediately. […] For the reference value, 100 µL of water replaced the test compound solution. For the blank control, additionally 100 µL of water replaced the enzyme solution. The measurement for each concentration was assayed in triplicate. GraphPad Prism 5 was used for data processing. The inhibition curve was fitted by plotting percentage enzyme activity (100% for the reference) versus logarithm of test compound concentration. The IC50 values were calculated according to the curve, and the data were shown in mean ± SEM.
(§4) The inhibitory effects on ChEs of all the target compounds were determined according to Ellman’s method. AChE from electrophorus electricus (eeAChE) and BuChE from equine serum (eqBuChE) were used in the assays.

[2] = target: T2, BuChE (EC 3.1.1.8) from horse serum (Equus caballus, UniProt P81908); assay: biochemical; assay type: biochemical; settings: BuChE from horse serum; mean ± SEM of three experiments
T2 construct: purchased Sigma-Aldrich C0663; host or cells: equine serum
T2 sequence (P81908 whole entry): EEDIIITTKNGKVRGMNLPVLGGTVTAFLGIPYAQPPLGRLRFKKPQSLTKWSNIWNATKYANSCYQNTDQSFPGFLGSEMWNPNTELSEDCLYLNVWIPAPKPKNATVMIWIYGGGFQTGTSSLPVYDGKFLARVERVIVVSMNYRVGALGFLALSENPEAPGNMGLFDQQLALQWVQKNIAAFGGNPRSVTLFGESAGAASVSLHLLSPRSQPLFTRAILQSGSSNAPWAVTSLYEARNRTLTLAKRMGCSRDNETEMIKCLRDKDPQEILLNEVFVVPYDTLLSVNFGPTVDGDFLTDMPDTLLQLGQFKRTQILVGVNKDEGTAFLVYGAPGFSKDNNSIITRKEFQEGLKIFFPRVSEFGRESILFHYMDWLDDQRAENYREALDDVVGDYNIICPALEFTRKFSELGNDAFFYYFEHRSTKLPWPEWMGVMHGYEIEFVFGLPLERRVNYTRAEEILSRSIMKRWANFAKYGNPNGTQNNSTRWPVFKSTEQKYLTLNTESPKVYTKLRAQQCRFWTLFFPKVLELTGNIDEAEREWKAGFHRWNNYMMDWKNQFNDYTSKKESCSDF
Description: as §1, §2, §3, §4

T1 sequence (O42275 24-633): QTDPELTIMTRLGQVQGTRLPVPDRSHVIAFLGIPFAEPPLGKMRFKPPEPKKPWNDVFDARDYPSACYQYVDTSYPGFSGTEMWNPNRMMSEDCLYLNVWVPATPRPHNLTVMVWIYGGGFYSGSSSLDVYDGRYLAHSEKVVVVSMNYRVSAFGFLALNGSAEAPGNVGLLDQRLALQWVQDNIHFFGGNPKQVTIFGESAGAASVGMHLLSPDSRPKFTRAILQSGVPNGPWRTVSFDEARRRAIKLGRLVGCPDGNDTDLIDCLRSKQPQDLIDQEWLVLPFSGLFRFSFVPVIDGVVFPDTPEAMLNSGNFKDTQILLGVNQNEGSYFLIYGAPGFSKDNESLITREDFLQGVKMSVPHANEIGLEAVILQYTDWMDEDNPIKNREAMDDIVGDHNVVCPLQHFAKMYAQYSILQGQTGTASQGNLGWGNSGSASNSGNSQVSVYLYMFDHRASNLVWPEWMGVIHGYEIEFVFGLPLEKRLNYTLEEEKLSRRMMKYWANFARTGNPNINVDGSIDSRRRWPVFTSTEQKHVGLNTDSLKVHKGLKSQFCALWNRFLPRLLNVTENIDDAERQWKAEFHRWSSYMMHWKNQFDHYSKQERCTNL

O=C(/C=C/c1ccc([N+](=O)[O-])cc1)NCCCCCCNc1c2c(nc3ccccc13)CCCC2 [Compound 19, (E)-3-(4-nitrophenyl)-N-(6-((1,2,3,4-tetrahydroacridin-9-yl)amino)hexyl)acrylamide]
IC50 ([1]; AChE from electric eel, mean ± SEM of three experiments): 2.7 ± 0.4 nM
Selectivity index (SI) = BuChE IC50/AChE IC50 ([1]; eqBuChE IC50 / eeAChE IC50): 2.4
IC50 [2]: 6.5 ± 0.6 nM
